Source: patent publication EP0082667A1, “Pharmaceutical compositions” (BEECHAM GROUP PLC, priority 1981, dated 1983)
Read-outs that look alike come from different tables or passages of the source.

Columns and labels:
[1] = HPLC assay of BVDU, BVDU metabolite and probenecid in mouse serum; format: in vivo, female Balb/c mice; conditions: for concentration at 1.25 h: Experiment 2, 75 mins after dosing; for concentration at 2 h: Experiment 2, 120 mins after dosing
Protocol: (§1) A single 100 mg/kg dose of BVDU, alone or in combination with 100 mg/kg or 200 mg/kg of probenecid, was administered as a suspension in carboxymethyl cellulose'to groups of 3 starved female Balb/c mice. Blood was collected at 30, 75 (or 85) and 120 minutes after dosing and the serum separated and stored at -20°C.
Instrument: Waters H.P.L.C. Column: RCM 100 C18 Reverse Phase Radical Compression Column Solvents: Solvent (A) 0.05M Ammonium Acetate at pH4.5 Solvent (B) 80% Methanol, 10% Water, 10%(A) Conditions: 50% (B) Detector wavelength: 250 mp Solvent Flow: 1 and 3 mL/min.
Mouse serum samples (90 pL each) were treated with 16% aqueous trichloroacetic acid solution (90 µL) to deposit all proteins and the samples spun down using a micro centrifuge. The supernatant portions were assayed by injection (20 µL) into a reverse phase HPLC column). […] Under these conditions, the BVDU metabolite had retention time of 10.8 min and BVDU 11.6 min. The amounts of BVDU and Probenecid were calculated by comparison with an injected known amount of.each drug. The amounts of BVDU metabolite were calculated by assuming the same detector response as BVDU. All calculations were then extrapolated to give the amount of each component present in each serum sample in pg/mL.
(§2) Mice dosed with BVDU and serum assayed at 30 and 85 minutes atter drug administration.
Mice dosed with BVDU or combinations of BVDU and Probenecid and the serum assayed by HPLC at 30, 75 and 120 minutes after drug administration.

[2] = system: herpes simplex virus type 1 (strain SC-16); assay: Hairless mouse cutaneous herpesvirus model (lesion scoring); format: in vivo, adult hairless (HrHr) female mice; conditions: each x one mouse, BVDU 100mg/kg or BVDU/Probenecid 100/200mg/kg
Protocol: When hairless mice are infected with herpesvirus by dermal scaritication, vesicles appear at the site ot inoculation b days later. These rapidly coalesce to form a spreading unilateral lesion involving one hind quarter, leading eventually to ascending paralysis and death. The ettect ot treatments is assessed by a scoring method as lesions develop.
uroups ot lu adult hairless (HrHr) female mice were anaesthetized using ether and then infected with herpes simplex virus type 1 (strain SC-16) by scarifying an area =1cm^2 at a site parallel with the top of the left hind limb, just below the midline, and introducing a drop ot virus-containing solution to tnis site. single dally doses ot placebo, Bvuu (100mg/kg/dose) or a 1:2 mixture or BVDU and probenecid (100/200mg/kg/dose) were administered orally for seven days, commencing 24 hours after intection. From 4 days atter infection individual mice were examined daily and scored according to the severity ot infection.

[3] = Detection of BVDU and metabolite in urine of the dosed animals; format: in vivo, mice
[4] = Plaque inhibition assay of sera from dosed mice (biological assay of antiviral activity in serum); format: cell-based, Herpes simplex type 1 virus; conditions: Experiment 1, single 100 mg/kg dose of BVDU, mouse serum, read-out: Antiviral activity in serum (BVDU equiv (µg/mL) ± Standard Deviation)
Protocol: as §1
(§3) Heat inactivated sera from single mice were titrated in plaque inhibition assays using the KOS strain of Herpes simplex type 1 virus in Vero cell monolayers. Antiviral activity is calculated by extrapolation from a standard inhibition dose response curve for BVDU and is quoted as the equivalent concentration of BVDU (in pg/mL) giving the same activity in cell culture.
as §2

[5] = system: herpes simplex virus type 1 (strain SC-16); assay: Mouse ear herpesvirus model (virus replication and ear inflammation); format: in vivo, female Balb/c mice; conditions: for Virus titre (log10 p.f.u./ear) / Difference in ear thickness between uninfected and infected ears (mm x 10^-2): oral 3 x daily day 0 to day 4, BVDU 100mg/kg/dose or BVDU/Probenecid 100/200mg/kg/dose
Protocol: 1. Mouse Ear Herpesvirus Model (Reference, H.J. Field, Antimicrob. Ag. Chemother., 21, 744 (1982))
This model is based upon comparisons of viral replication in, and intlammation of, the ears of untreated or treated mice atter infection with herpesvirus.
The left pinna of female Balb/c mice were infected intradermally with 10^5 PFU of herpes simplex virus type 1 (strain SC-16) suspended in 2U^gl of Eagle minimum essential medium. The mice were treated orally 3 times daily from the time of infection until day +4 with BVDU at 100mg/kg/dose or a 1:2 mixture of BVDU and probenecid (100/200mg/kg/dose). At selected times after infection groups of three mice were killed and the ear thickness of both the left and right ears measured using a micrometer gauge. The left ears were then removed and placed individually into 3ml of phosphate buffered saline. Samples were homogenised and sonicated. After centrifugation the supernatant was removed and assayed immediately in a plaque assay in Vero cells.

[6] = system: KOS strain of Herpes simplex type 1 virus in Vero cell monolayers; assay: Plaque inhibition assay of sera from dosed mice (biological assay of antiviral activity in serum); format: cell-based; conditions: inferred from comparison of serum bioassay with HPLC levels of BVDU and metabolite
Protocol: as §1, §3, §2

[7] = single dose, probenecid 200 mg/kg alone or 100 or 200 mg/kg with BVDU 100 mg/kg, read-out: Concentration (µg/mL) in Serum Probenecid
[8] = Day +8, single daily oral doses for seven days
[9] = Day +11, single daily oral doses for seven days
[10] = mouse, in vivo, 100 mg/kg, single dose, BVDU 100 mg/kg alone or with probenecid 100 or 200 mg/kg, read-out: Concentration (µg/mL) in Serum BVDU

CCCN(CCC)S(=O)(=O)c1ccc(C(=O)O)cc1 [Probenecid]
concentration at 0.5 h ([1]; Experiment 2, 30 mins after dosing, single dose, probenecid 200 mg/kg alone or 100 or 200 mg/kg with BVDU 100 mg/kg, read-out: Concentration (µg/mL) in Serum Probenecid): 3.8 µg/mL
concentration at 1.25 h [1, 7]: 3.2 µg/mL
concentration at 2 h [1, 7]: 2.3 µg/mL

O=c1[nH]c(=O)n([C@H]2C[C@H](O)[C@@H](CO)O2)cc1/C=C/Br [BVDU, E-5-(2-bromovinyl)-2'-deoxyuridine]
Mice with lesion score 2 (Scab at infection site) ([2]; Day +4, single daily oral doses for seven days from 24 hours after infection): xxxxxxx
Mice with lesion score 1 (1° Vesicles) ([2]; Day +4, single daily oral doses for seven days): xxx
Mice with lesion score 5 (Severe spreading) [2, 8]: xxxxxxx
Mice with lesion score 7 (Death) [2, 8]: xx
Mice with lesion score 4 (Spreading) [2, 9]: xx
Mice with lesion score 5 (Severe spreading) [2, 9]: xxx
Mice with lesion score 7 (Death) [2, 9]: xxxx
detected in the urine [3]: only BVDU and none of the metabolite was detected in the urine
concentration at 0.5 h ([1]; in vivo, Experiment 2, 30 mins after dosing, single dose, BVDU 100 mg/kg alone or with probenecid 100 or 200 mg/kg (dose in brackets in label), read-out: Concentration (µg/mL) in Serum BVDU): 26.1 µg/mL
concentration at 0.5 h ([1]; mouse, in vivo, 100 mg/kg, Experiment 1, 30 mins after dosing, single 100 mg/kg dose of BVDU, read-out: HPLC Determinations BVDU Conc (µg/mL) in serum): 38 µg/mL
concentration at 85 min ([1]; mouse, in vivo, 100 mg/kg, Experiment 1, 85 mins after dosing, single 100 mg/kg dose of BVDU, read-out: HPLC Determinations BVDU Conc (µg/mL) in serum): 3.9 µg/mL
concentration at 1.25 h [1, 10]: 13 µg/mL
concentration at 2 h [1, 10]: 3.6 µg/mL
concentration at 0.5 h ([4]; 30 mins after dosing): 39.8 ± 10.6 µg/mL
concentration at 85 min ([4]; 85 mins after dosing): 4.7 ± 1.4 µg/mL
Virus titre (log10 p.f.u./ear) ([5]; Experiment A, day 1 post inoculation): 3.5 log10 p.f.u./ear
Virus titre (log10 p.f.u./ear) ([5]; Experiment A, day 2 post inoculation): 3.0 log10 p.f.u./ear
Virus titre (log10 p.f.u./ear) ([5]; Experiment A, day 3 post inoculation): 2.9 log10 p.f.u./ear
Virus titre (log10 p.f.u./ear) ([5]; Experiment A, day 4 post inoculation): 3.3 log10 p.f.u./ear
Virus titre (log10 p.f.u./ear) ([5]; Experiment A, day 7 post inoculation): 1.3 log10 p.f.u./ear
Virus titre (log10 p.f.u./ear) ([5]; Experiment B, day 1 post inoculation): 4.1 log10 p.f.u./ear
Virus titre (log10 p.f.u./ear) ([5]; Experiment B, day 2 post inoculation): 3.0 log10 p.f.u./ear
Virus titre (log10 p.f.u./ear) ([5]; Experiment B, day 3 post inoculation): 3.3 log10 p.f.u./ear
Virus titre (log10 p.f.u./ear) ([5]; Experiment B, day 4 post inoculation): 3.9 log10 p.f.u./ear
Virus titre (log10 p.f.u./ear) ([5]; Experiment B, day 7 post inoculation): 0 log10 p.f.u./ear
Difference in ear thickness between uninfected and infected ears (mm x 10^-2) ([5]; day 1 post inoculation): 10.1 mm x 10^-2
Difference in ear thickness between uninfected and infected ears (mm x 10^-2) ([5]; day 2 post inoculation): 14.2 mm x 10^-2
Difference in ear thickness between uninfected and infected ears (mm x 10^-2) ([5]; day 3 post inoculation): 13.4 mm x 10^-2
Difference in ear thickness between uninfected and infected ears (mm x 10^-2) ([5]; day 4 post inoculation): 15.1 mm x 10^-2
Difference in ear thickness between uninfected and infected ears (mm x 10^-2) ([5]; day 7 post inoculation): 20.7 mm x 10^-2
Difference in ear thickness between uninfected and infected ears (mm x 10^-2) ([5]; day 8 post inoculation): 20.8 mm x 10^-2
Difference in ear thickness between uninfected and infected ears (mm x 10^-2) ([5]; day 9 post inoculation): 20.2 mm x 10^-2
Difference in ear thickness between uninfected and infected ears (mm x 10^-2) ([5]; day 11 post inoculation): 16.1 mm x 10^-2
Difference in ear thickness between uninfected and infected ears (mm x 10^-2) ([5]; day 12 post inoculation): 14.0 mm x 10^-2
Difference in ear thickness between uninfected and infected ears (mm x 10^-2) ([5]; day 14 post inoculation): 10.1 mm x 10^-2
ear thickness ([5]; oral 3 times daily until day +4, BVDU 100mg/kg/dose or 1:2 mixture 100/200mg/kg/dose): no ettect

O=c1[nH]cc(/C=C/Br)c(=O)[nH]1 [BVDU Metabolite]
antiviral activity [6]: no significant antiviral activity
